# Source: BigSolDB 2.1
structure (smiles),measurement,setting,value
CN1CCN(C2=Nc3cc(Cl)ccc3Nc3ccccc32)CC1,solubility (mole fraction),"in 1,2-dichloroethane, 283.15 K",0.0117
same,solubility (mole fraction),"in 1,2-dichloroethane, 288.15 K",0.0157
same,solubility (mole fraction),"in 1,2-dichloroethane, 293.15 K",0.0183
same,solubility (mole fraction),"in 1,2-dichloroethane, 298.15 K",0.0215
same,solubility (mole fraction),"in 1,2-dichloroethane, 303.15 K",0.0243
same,solubility (mole fraction),"in 1,2-dichloroethane, 308.15 K",0.0285
same,solubility (mole fraction),"in 1,2-dichloroethane, 313.15 K",0.0314
same,solubility (mole fraction),"in 1,2-dichloroethane, 318.15 K",0.0386
same,solubility (mole fraction),"in 1,2-dichloroethane, 323.15 K",0.0464
same,solubility (mole fraction),"in 1,2-dichloroethane, 328.15 K",0.0573
same,solubility (mole fraction),"in 1,2-dichloroethane, 333.15 K",0.0648
same,solubility (mole fraction),"in DMF, 283.15 K",0.0781
same,solubility (mole fraction),"in DMF, 288.15 K",0.0844
same,solubility (mole fraction),"in DMF, 293.15 K",0.0893
same,solubility (mole fraction),"in DMF, 298.15 K",0.0936
same,solubility (mole fraction),"in DMF, 303.15 K",0.101
same,solubility (mole fraction),"in DMF, 308.15 K",0.111
same,solubility (mole fraction),"in DMF, 313.15 K",0.122
same,solubility (mole fraction),"in DMF, 318.15 K",0.133
same,solubility (mole fraction),"in DMF, 323.15 K",0.145
same,solubility (mole fraction),"in DMF, 328.15 K",0.155
same,solubility (mole fraction),"in DMF, 333.15 K",0.17
same,solubility (mole fraction),"in DMSO, 293.15 K",0.0596
same,solubility (mole fraction),"in DMSO, 298.15 K",0.064
same,solubility (mole fraction),"in DMSO, 303.15 K",0.0709
same,solubility (mole fraction),"in DMSO, 308.15 K",0.0836
same,solubility (mole fraction),"in DMSO, 313.15 K",0.0949
same,solubility (mole fraction),"in DMSO, 318.15 K",0.109
same,solubility (mole fraction),"in DMSO, 323.15 K",0.119
same,solubility (mole fraction),"in DMSO, 328.15 K",0.139
same,solubility (mole fraction),"in DMSO, 333.15 K",0.159
same,solubility (mole fraction),"in NMP, 283.15 K",0.0305
same,solubility (mole fraction),"in NMP, 288.15 K",0.0406
same,solubility (mole fraction),"in NMP, 293.15 K",0.0474
same,solubility (mole fraction),"in NMP, 298.15 K",0.0525
same,solubility (mole fraction),"in NMP, 303.15 K",0.0606
same,solubility (mole fraction),"in NMP, 308.15 K",0.0687
same,solubility (mole fraction),"in NMP, 313.15 K",0.075
same,solubility (mole fraction),"in NMP, 318.15 K",0.0827
same,solubility (mole fraction),"in NMP, 323.15 K",0.0987
same,solubility (mole fraction),"in NMP, 328.15 K",0.113
same,solubility (mole fraction),"in NMP, 333.15 K",0.118
same,solubility (mole fraction),"in acetone, 283.15 K",0.00791
same,solubility (mole fraction),"in acetone, 288.15 K",0.00914
same,solubility (mole fraction),"in acetone, 293.15 K",0.0122
same,solubility (mole fraction),"in acetone, 298.15 K",0.0139
same,solubility (mole fraction),"in acetone, 303.15 K",0.0164
same,solubility (mole fraction),"in acetone, 308.15 K",0.018
same,solubility (mole fraction),"in acetone, 313.15 K",0.0201
same,solubility (mole fraction),"in acetone, 318.15 K",0.0236
same,solubility (mole fraction),"in acetone, 323.15 K",0.0278
same,solubility (mole fraction),"in benzene, 283.15 K",0.00583
same,solubility (mole fraction),"in benzene, 288.15 K",0.00619
same,solubility (mole fraction),"in benzene, 293.15 K",0.00676
same,solubility (mole fraction),"in benzene, 298.15 K",0.00771
same,solubility (mole fraction),"in benzene, 303.15 K",0.00967
same,solubility (mole fraction),"in benzene, 308.15 K",0.0119
same,solubility (mole fraction),"in benzene, 313.15 K",0.0152
same,solubility (mole fraction),"in benzene, 318.15 K",0.0181
same,solubility (mole fraction),"in benzene, 323.15 K",0.0208
same,solubility (mole fraction),"in benzene, 328.15 K",0.0259
same,solubility (mole fraction),"in benzene, 333.15 K",0.0303
same,solubility (mole fraction),"in ethanol, 283.15 K",0.0057
same,solubility (mole fraction),"in ethanol, 288.15 K",0.00581
same,solubility (mole fraction),"in ethanol, 293.15 K",0.00644
same,solubility (mole fraction),"in ethanol, 298.15 K",0.00702
same,solubility (mole fraction),"in ethanol, 303.15 K",0.00767
same,solubility (mole fraction),"in ethanol, 308.15 K",0.00837
same,solubility (mole fraction),"in ethanol, 313.15 K",0.0089
same,solubility (mole fraction),"in ethanol, 318.15 K",0.0103
same,solubility (mole fraction),"in ethanol, 323.15 K",0.0112
same,solubility (mole fraction),"in ethanol, 328.15 K",0.0128
same,solubility (mole fraction),"in ethanol, 333.15 K",0.0158
same,solubility (mole fraction),"in isopropanol, 283.15 K",0.00272
same,solubility (mole fraction),"in isopropanol, 288.15 K",0.00278
same,solubility (mole fraction),"in isopropanol, 293.15 K",0.00296
same,solubility (mole fraction),"in isopropanol, 298.15 K",0.00327
same,solubility (mole fraction),"in isopropanol, 303.15 K",0.00374
same,solubility (mole fraction),"in isopropanol, 308.15 K",0.0044
same,solubility (mole fraction),"in isopropanol, 313.15 K",0.00503
same,solubility (mole fraction),"in isopropanol, 318.15 K",0.00591
same,solubility (mole fraction),"in isopropanol, 323.15 K",0.00643
same,solubility (mole fraction),"in isopropanol, 328.15 K",0.00846
same,solubility (mole fraction),"in isopropanol, 333.15 K",0.0103
same,solubility (mole fraction),"in methanol, 283.15 K",0.00638
same,solubility (mole fraction),"in methanol, 288.15 K",0.00648
same,solubility (mole fraction),"in methanol, 293.15 K",0.00713
same,solubility (mole fraction),"in methanol, 298.15 K",0.00785
same,solubility (mole fraction),"in methanol, 303.15 K",0.0088
same,solubility (mole fraction),"in methanol, 308.15 K",0.00975
same,solubility (mole fraction),"in methanol, 313.15 K",0.0103
same,solubility (mole fraction),"in methanol, 318.15 K",0.0109
same,solubility (mole fraction),"in methanol, 323.15 K",0.0118
same,solubility (mole fraction),"in methanol, 328.15 K",0.0143
same,solubility (mole fraction),"in n-propanol, 283.15 K",0.00617
same,solubility (mole fraction),"in n-propanol, 288.15 K",0.00619
same,solubility (mole fraction),"in n-propanol, 293.15 K",0.00669
same,solubility (mole fraction),"in n-propanol, 298.15 K",0.00754
same,solubility (mole fraction),"in n-propanol, 303.15 K",0.00794
same,solubility (mole fraction),"in n-propanol, 308.15 K",0.00863
same,solubility (mole fraction),"in n-propanol, 313.15 K",0.0109
same,solubility (mole fraction),"in n-propanol, 318.15 K",0.0127
same,solubility (mole fraction),"in n-propanol, 323.15 K",0.0142
same,solubility (mole fraction),"in n-propanol, 328.15 K",0.0171
same,solubility (mole fraction),"in n-propanol, 333.15 K",0.0199
same,solubility (mole fraction),"in toluene, 283.15 K",0.00352
same,solubility (mole fraction),"in toluene, 288.15 K",0.00465
same,solubility (mole fraction),"in toluene, 293.15 K",0.00549
same,solubility (mole fraction),"in toluene, 298.15 K",0.00651
same,solubility (mole fraction),"in toluene, 303.15 K",0.0075
same,solubility (mole fraction),"in toluene, 308.15 K",0.00858
same,solubility (mole fraction),"in toluene, 313.15 K",0.0105
same,solubility (mole fraction),"in toluene, 318.15 K",0.0118
same,solubility (mole fraction),"in toluene, 323.15 K",0.014
same,solubility (mole fraction),"in toluene, 328.15 K",0.0164
same,solubility (mole fraction),"in toluene, 333.15 K",0.0202
